Data taken from article PMC2918893 (Journal of biomolecular NMR, 2009).

Target: T1, HisF (cyclase subunit of imidazole glycerol phosphate synthase, IGPS) (Thermotoga maritima, UniProt Q9X0C6)
T1 sequence (Q9X0C6 1-253): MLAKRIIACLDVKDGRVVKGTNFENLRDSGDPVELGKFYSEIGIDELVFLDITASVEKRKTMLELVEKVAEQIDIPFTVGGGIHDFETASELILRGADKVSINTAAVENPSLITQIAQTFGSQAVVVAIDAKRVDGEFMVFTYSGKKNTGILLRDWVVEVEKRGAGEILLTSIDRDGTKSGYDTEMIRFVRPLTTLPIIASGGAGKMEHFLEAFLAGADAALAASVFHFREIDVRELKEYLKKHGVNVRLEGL
T1 sequence (Q9X0C8 1-201 partner): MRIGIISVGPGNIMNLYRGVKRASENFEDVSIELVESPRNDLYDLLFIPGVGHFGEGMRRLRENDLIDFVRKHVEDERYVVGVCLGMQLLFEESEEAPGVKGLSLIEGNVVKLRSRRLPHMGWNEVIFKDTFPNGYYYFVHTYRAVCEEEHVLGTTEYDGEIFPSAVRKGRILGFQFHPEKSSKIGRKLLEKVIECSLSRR
Assay: 1H-15N TROSY NMR titration, global fit of chemical shift changes of […] residues
Type: binding

Question: `O=P(O)(O)OC[C@@H](O)[C@@H](O)c1c[nH]cn1` [IGP] was tested. Which Kd did it give?
Answer: 500 ± 100 µM
